Reference: ChEMBL document CHEMBL1159287, “Effect of anthraquinone derivatives on lipid peroxidation in rat heart mitochondria: structure-activity relationship” (J Nat Prod, 1995)
The source made the active and inactive calls. No cut-off for these calls is given here.

Legend:
[1] = tested on: PBMC; assay: Inhibition of thymidine uptake in phytohemagglutininin-stimulated human PBMC; type: functional, cell-based
[2] = species: Rattus norvegicus; assay: Inhibition of lipid peroxidation in Sprague-Dawley rat heart mitochondria assessed as inhibition of FeSO4-induced oxygen consumption up to 0.3 mM relative to control; type: functional; parameters: scale not given: the % may be the effect or the level left
[3] = species: Rattus norvegicus; assay: Inhibition of lipid peroxidation in Sprague-Dawley rat heart mitochondria assessed as inhibition of FeSO4-induced malondialdehyde formation up to 0.3 mM relative to control; type: functional; parameters: scale not given: the % may be the effect or the level left
[4] = Inhibition of lipid peroxidation in Sprague-Dawley rat heart mitochondria assessed as inhibition of FeSO4-induced oxygen consumption; type: functional
[5] = Inhibition of lipid peroxidation in Sprague-Dawley rat heart mitochondria assessed as inhibition of FeSO4-induced malondialdehyde formation; type: functional
[6] = tested on: Radical scavenging activity; assay: Antioxidant activity assessed as DPPH radical scavenging activity after 90 mins; type: functional
[7] = species: Rattus norvegicus; assay: Antioxidant activity in Sprague-Dawley rat heart mitochondria assessed as inhibition of conjugated diene formation at 1 to 300 uM; type: functional

Row | SMILES | Activity [2] | Activity [3] | IC50 [4] | IC50 [5] | also measured
1 | O=C1c2ccc(O)cc2C(=O)c2ccc(O)cc21 | < 50% | < 50% |  |  | Activity [1]: Active
2 | O=C1c2cccc(O)c2C(=O)c2cccc(O)c21 | < 50% | < 50% |  |  | 
3 | Nc1cccc2c1C(=O)c1ccccc1C2=O | < 50% | < 50% |  |  | 
4 | O=C(O[C@@H]1Cc2c(O)cc(O)cc2O[C@@H]1c1ccc(O)c(O)c1)c1cc(O)c(O)c(O)c1 [EPICATECHIN GALLATE] |  |  | 8.4 µM | 5.4 µM | 
5 | COc1cc(O)c2c(c1)C(=O)c1cc(C)cc(O)c1C2=O | < 50% | < 50% |  |  | 
6 | Cc1cc(O)c2c(c1)C(=O)c1cc(O)cc(O[C@@H]3O[C@H](CO)[C@@H](O)[C@H](O)[C@H]3O)c1C2=O | < 50% | < 50% |  |  | 
7 | Oc1cc(O)c2c(c1)O[C@H](c1ccc(O)c(O)c1)[C@H](O)[C@H]2c1c(O)cc(O)c2c1O[C@H](c1ccc(O)c(O)c1)[C@H](O)C2 [PROCYANIDIN B2] |  |  | 11 µM | 9 µM | 
8 | Cc1cc(O)c2c(c1)C(=O)c1cccc(O)c1C2=O | < 50% | < 50% |  |  | 
9 | O=C(O[C@@H]1Cc2c(O)cc(O)cc2O[C@@H]1c1cc(O)c(O)c(O)c1)c1cc(O)c(O)c(O)c1 [EPIGALOCATECHIN GALLATE] |  |  | 12.2 µM | 9.4 µM | 
10 | O=C1c2ccccc2C(=O)c2c1ccc(O)c2O [ATHRAQUINONES A] |  |  | 63.9 µM | 49.5 µM | Activity [6]: Active
11 | O=C(O)c1ccc2c(c1)C(=O)c1ccccc1C2=O | < 50% | < 50% |  |  | 
12 | COc1cc(O[C@@H]2O[C@H](CO)[C@@H](O)[C@H](O)[C@H]2O)c2c(c1)C(=O)c1cc(C)cc(O)c1C2=O | < 50% | < 50% |  |  | 
13 | O=C1OC[C@H]2OC(O)[C@@H]3OC(=O)c4cc(O)c(O)c(O)c4-c4c(cc(O)c(O)c4O)C(=O)O[C@H]3[C@@H]2OC(=O)c2cc(O)c(O)c(O)c2-c2c1cc(O)c(O)c2O (stereo partly drawn) [PEDUNCULAGIN] |  |  | 7.8 µM | 12 µM | 
14 | Cc1c(C)c2c(c(C)c1O)CC[C@@](C)(CCC[C@H](C)CCC[C@H](C)CCCC(C)C)O2 [ALPHA-TOCOPHEROL] |  |  | 102 µM | 94.7 µM | Activity [6]: Active
15 | Cc1cc(O)c2c(c1)C(=O)c1cc(O)cc(O)c1C2=O [EMODIN] |  |  | 12.5 µM | 16.8 µM | Activity [6]: inactive; Activity [7]: inactive
16 | O=C(O[C@@H]1Cc2c(O)cc(O)cc2O[C@H]1c1cc(O)c(O)c(O)c1)c1cc(O)c(O)c(O)c1 [GALLOCATECHIN GALLATE] |  |  | 14 µM | 8.6 µM | 
17 | CCc1ccc2c(c1)C(=O)c1ccccc1C2=O | < 50% | < 50% |  |  | 
18 | O=C1c2ccccc2C(=O)c2ccccc21 | < 50% | < 50% |  |  | 
19 | Nc1ccc2c(c1)C(=O)c1ccccc1C2=O | < 50% | < 50% |  |  | 
